Results from article PMC5218480 (PLoS ONE, 2017).

Tested on: MV-4-11 cells
Assay: Gene expression microarray analysis (Affymetrix PrimeView) and GSEA
Format: cell-based, human
Set-up: RFU PODN (11730768_x_at) / Fold change /veh PODN (11730768_x_at) / RFU LINC00158 (11744669_a_at) / Fold change /veh LINC00158 (11744669_a_at) / RFU DUSP10 (11751237_a_at) / Fold change /veh DUSP10 (11751237_a_at) / RFU ID3 (11757404_x_at) / Fold change /veh ID3 (11757404_x_at) / RFU PLEKHG5 (11737974_s_at) / Fold change /veh PLEKHG5 (11737974_s_at) / RFU LRRC4B (11730491_at) / Fold change /veh LRRC4B (11730491_at) / RFU GIMAP4 (11747438_a_at) / Fold change /veh GIMAP4 (11747438_a_at) / RFU KRT8 (11758183_x_at) / Fold change /veh KRT8 (11758183_x_at) / RFU CNN1 (11734310_a_at) / Fold change /veh CNN1 (11734310_a_at) / RFU VPS37D (11726825_at) / Fold change /veh VPS37D (11726825_at) / RFU C10orf10 (11716522_x_at) / Fold change /veh C10orf10 (11716522_x_at) / RFU KIR2DL2 /// KIR2DL4 /// KIR2DL5A /// KIR2DL5B /// KIR2DS1 /// KIR2DS2 /// KIR2DS3 /// KIR2DS4 /// KIR3DL3 /// KIR3DL3 /// KIR3DS1 (11738374_at) / Fold change /veh KIR2DL2 /// KIR2DL4 /// KIR2DL5A /// KIR2DL5B /// KIR2DS1 /// KIR2DS2 /// KIR2DS3 /// KIR2DS4 /// KIR3DL3 /// KIR3DL3 /// KIR3DS1 (11738374_at) / RFU C1QL1 (11718748_at) / Fold change /veh C1QL1 (11718748_at) / RFU TMPRSS4 (11747572_a_at) / Fold change /veh TMPRSS4 (11747572_a_at) / RFU HAMP (11756126_x_at) / Fold change /veh HAMP (11756126_x_at) / RFU RNFT2 (11725882_a_at) / Fold change /veh RNFT2 (11725882_a_at) / RFU NR4A2 (11747474_a_at) / Fold change /veh NR4A2 (11747474_a_at) / RFU ABCC12 (11746883_a_at) / Fold change /veh ABCC12 (11746883_a_at) / RFU TMEM136 (11760407_x_at) / Fold change /veh TMEM136 (11760407_x_at) / RFU CLDN22 /// WWC2 (11732394_at) / Fold change /veh CLDN22 /// WWC2 (11732394_at) / RFU HLA-DPB1 (11760878_x_at) / Fold change /veh HLA-DPB1 (11760878_x_at) / RFU SPINT1 (11716480_a_at) / Fold change /veh SPINT1 (11716480_a_at) / RFU GAP43 (11754022_s_at) / Fold change /veh GAP43 (11754022_s_at) / RFU A4GNT (11735810_at) / Fold change /veh A4GNT (11735810_at) / RFU PRB3 (11715151_x_at) / Fold change /veh PRB3 (11715151_x_at) / RFU TUBB4B (11761932_at) / Fold change /veh TUBB4B (11761932_at) / RFU CAPN14 (11732068_a_at) / Fold change /veh CAPN14 (11732068_a_at) / RFU TMCC2 (11721928_a_at) / Fold change /veh TMCC2 (11721928_a_at) / RFU IRGQ (11745062_a_at) / Fold change /veh IRGQ (11745062_a_at) / RFU FAM174B (11720279_a_at) / Fold change /veh FAM174B (11720279_a_at) / RFU TMPRSS4 (11748680_a_at) / Fold change /veh TMPRSS4 (11748680_a_at) / RFU FAM212B (11763350_a_at) / Fold change /veh FAM212B (11763350_a_at) / RFU PLEKHG5 (11743358_a_at) / Fold change /veh PLEKHG5 (11743358_a_at) / RFU ZSCAN30 (11745921_a_at) / Fold change /veh ZSCAN30 (11745921_a_at) / RFU CMKLR1 (11741424_a_at) / Fold change /veh CMKLR1 (11741424_a_at) / RFU LOC101060620 /// MAPK8IP1 (11723275_at) / Fold change /veh LOC101060620 /// MAPK8IP1 (11723275_at) / RFU SPTSSB (11747773_x_at) / Fold change /veh SPTSSB (11747773_x_at) / RFU PRSS12 (11739890_at) / Fold change /veh PRSS12 (11739890_at) / RFU BIN1 (11741810_x_at) / Fold change /veh BIN1 (11741810_x_at) / RFU WNT11 (11732464_a_at) / Fold change /veh WNT11 (11732464_a_at) / RFU C10orf10 (11716521_a_at) / Fold change /veh C10orf10 (11716521_a_at) / RFU C5orf56 (11738089_at) / Fold change /veh C5orf56 (11738089_at) / RFU CYB561 (11721691_x_at) / Fold change /veh CYB561 (11721691_x_at) / RFU ANKRD19P (11752326_a_at) / Fold change /veh ANKRD19P (11752326_a_at) / RFU OR2T12 /// OR2T33 /// OR2T8 (11738714_s_at) / Fold change /veh OR2T12 /// OR2T33 /// OR2T8 (11738714_s_at) / RFU VCAN (11748164_a_at) / Fold change /veh VCAN (11748164_a_at) / RFU JSRP1 (11732532_at) / Fold change /veh JSRP1 (11732532_at) / RFU KRTAP10-11 (11738290_x_at) / Fold change /veh KRTAP10-11 (11738290_x_at) / RFU MYO3A (11730013_a_at) / Fold change /veh MYO3A (11730013_a_at) / RFU EBF3 (11725865_a_at) / Fold change /veh EBF3 (11725865_a_at) / RFU CAMK2N1 (11719241_x_at) / Fold change /veh CAMK2N1 (11719241_x_at) / RFU C5orf56 (11738088_a_at) / Fold change /veh C5orf56 (11738088_a_at) / RFU OLFML3 (11715873_a_at) / Fold change /veh OLFML3 (11715873_a_at) / RFU LOC100653217 /// NTM (11731650_a_at) / Fold change /veh LOC100653217 /// NTM (11731650_a_at) / RFU MAPK11 (11762145_a_at) / Fold change /veh MAPK11 (11762145_a_at) / RFU FIZ1 (11724087_x_at) / Fold change /veh FIZ1 (11724087_x_at) / RFU OASL (11726364_x_at) / Fold change /veh OASL (11726364_x_at) / RFU SOX15 (11748057_x_at) / Fold change /veh SOX15 (11748057_x_at) / RFU CD79A (11719716_a_at) / Fold change /veh CD79A (11719716_a_at) / RFU HIST1H1D (11736915_at) / Fold change /veh HIST1H1D (11736915_at) / RFU CASKIN2 (11723855_a_at) / Fold change /veh CASKIN2 (11723855_a_at) / RFU LOC730098 (11760151_x_at) / Fold change /veh LOC730098 (11760151_x_at) / RFU OR4N2 (11742367_at) / Fold change /veh OR4N2 (11742367_at) / RFU PRRT2 (11749266_a_at) / Fold change /veh PRRT2 (11749266_a_at) / RFU SNX32 (11753110_a_at) / Fold change /veh SNX32 (11753110_a_at) / RFU CDHR5 (11726645_a_at) / Fold change /veh CDHR5 (11726645_a_at) / RFU RCAN1 (11760418_a_at) / Fold change /veh RCAN1 (11760418_a_at) / RFU FAM167A (11723789_a_at) / Fold change /veh FAM167A (11723789_a_at) / RFU FAM26E (11764081_at) / Fold change /veh FAM26E (11764081_at) / RFU ISYNA1 (11749810_s_at) / Fold change /veh ISYNA1 (11749810_s_at) / RFU ACY1 (11761880_at) / Fold change /veh ACY1 (11761880_at) / RFU 11764098_at / Fold change /veh 11764098_at / RFU SAMD14 (11745864_x_at) / Fold change /veh SAMD14 (11745864_x_at) / RFU NPB (11741838_a_at) / Fold change /veh NPB (11741838_a_at) / RFU TMPRSS6 (11731388_a_at) / Fold change /veh TMPRSS6 (11731388_a_at) / RFU KRTAP10-2 (11738614_at) / Fold change /veh KRTAP10-2 (11738614_at) / RFU ARHGAP8 /// PRR5-ARHGAP8 (11727945_x_at) / Fold change /veh ARHGAP8 /// PRR5-ARHGAP8 (11727945_x_at) / RFU KRTAP5-7 /// NADSYN1 (11734609_at) / Fold change /veh KRTAP5-7 /// NADSYN1 (11734609_at) / RFU RASL12 (11751679_a_at) / Fold change /veh RASL12 (11751679_a_at) / RFU CDKN2B (11736163_a_at) / Fold change /veh CDKN2B (11736163_a_at) / RFU PRF1 (11729649_at) / Fold change /veh PRF1 (11729649_at) / RFU, ZNF638 /// ZNF638-IT1 / Fold change vs veh, ZNF638 /// ZNF638-IT1 / RFU, PANK3 / Fold change vs veh, PANK3 / RFU, SH3YL1 / Fold change vs veh, SH3YL1 / RFU, ZEB2 / Fold change vs veh, ZEB2 / RFU, NRIP1 / Fold change vs veh, NRIP1 / RFU, PTTG1IP / Fold change vs veh, PTTG1IP / RFU, CAPN2 / Fold change vs veh, CAPN2 / RFU, MED14 / Fold change vs veh, MED14 / RFU, SNORA58 / Fold change vs veh, SNORA58 / RFU, C1orf63 / Fold change vs veh, C1orf63 / RFU, LRRFIP1 / Fold change vs veh, LRRFIP1 / RFU, NDUFAF7 / Fold change vs veh, NDUFAF7 / RFU, SLC12A2 / Fold change vs veh, SLC12A2 / RFU, IBTK / Fold change vs veh, IBTK / RFU, ESF1 / Fold change vs veh, ESF1 / Fold change vs veh, TMEM50B / RFU, TAOK1 / Fold change vs veh, TAOK1 / RFU, ACBD3 / Fold change vs veh, ACBD3 / RFU, TMA16 / Fold change vs veh, TMA16 / RFU, RWDD3 / Fold change vs veh, RWDD3 / RFU, BCAT1 / Fold change vs veh, BCAT1 / RFU, EDEM3 / Fold change vs veh, EDEM3 / RFU, TMEM33 / Fold change vs veh, TMEM33 / RFU, WDR75 / Fold change vs veh, WDR75 / RFU, AHCTF1 / Fold change vs veh, AHCTF1 / RFU, TFRC / Fold change vs veh, TFRC / RFU, ZDHHC17 / Fold change vs veh, ZDHHC17 / RFU, NOM1 / Fold change vs veh, NOM1 / RFU, ARL8B / Fold change vs veh, ARL8B / RFU, ZBTB11 / Fold change vs veh, ZBTB11 / RFU, TAMM41 / Fold change vs veh, TAMM41 / RFU, KIAA1704 /// LOC100996395 / Fold change vs veh, KIAA1704 /// LOC100996395 / RFU, ING1 / Fold change vs veh, ING1 / RFU, TRMT61B / Fold change vs veh, TRMT61B / RFU, FUBP3 / Fold change vs veh, FUBP3 / RFU, TP53 / Fold change vs veh, TP53 / RFU, TNKS2 / Fold change vs veh, TNKS2 / RFU, ZFP14 / Fold change vs veh, ZFP14 / RFU, ACTR2 / Fold change vs veh, ACTR2 / RFU, PPP3R1 / Fold change vs veh, PPP3R1 / RFU, PIK3R1 / Fold change vs veh, PIK3R1 / RFU, HNRNPA1 / Fold change vs veh, HNRNPA1 / RFU, RNF170 / Fold change vs veh, RNF170 / RFU, ZNF28 / Fold change vs veh, ZNF28 / RFU, RNGTT / Fold change vs veh, RNGTT / RFU, OGT / Fold change vs veh, OGT / RFU, BRD1 / Fold change vs veh, BRD1 / RFU, MARS / Fold change vs veh, MARS / RFU, ZNF655 / Fold change vs veh, ZNF655 / RFU, FAHD1 / Fold change vs veh, FAHD1 / RFU, BDP1 / Fold change vs veh, BDP1 / RFU, LRRCC1 / Fold change vs veh, LRRCC1 / RFU, ARID1A / Fold change vs veh, ARID1A / RFU, ZNF146 / Fold change vs veh, ZNF146 / RFU, ZNF330 / Fold change vs veh, ZNF330 / RFU, GPN3 / Fold change vs veh, GPN3 / RFU, C9orf123 / Fold change vs veh, C9orf123 / RFU, N4BP2L2 / Fold change vs veh, N4BP2L2 / RFU, ARFIP1 / Fold change vs veh, ARFIP1 / RFU, FAM179B / Fold change vs veh, FAM179B / RFU, BCL10 / Fold change vs veh, BCL10 / RFU, UHRF1BP1L / Fold change vs veh, UHRF1BP1L / RFU, BET1 / Fold change vs veh, BET1 / RFU, CNOT2 / Fold change vs veh, CNOT2 / RFU, ZNF268 / Fold change vs veh, ZNF268 / Fold change vs veh, ZNF507 / RFU, DGCR2 / Fold change vs veh, DGCR2 / RFU, WDSUB1 / Fold change vs veh, WDSUB1 / Fold change vs veh, HSP90B1 /// MIR3652 / RFU, ADSS / Fold change vs veh, ADSS / RFU, GK / Fold change vs veh, GK / RFU, ZNF148 / Fold change vs veh, ZNF148 / RFU, TAF9 / Fold change vs veh, TAF9 / RFU, SLC1A5 / Fold change vs veh, SLC1A5 / RFU, SLMO2 / Fold change vs veh, SLMO2 / RFU, ABCC4 / Fold change vs veh, ABCC4 / RFU, LOC101060439 /// RAP1B / Fold change vs veh, LOC101060439 /// RAP1B / RFU, RFX7 / Fold change vs veh, RFX7 / RFU, GTPBP10 / Fold change vs veh, GTPBP10 / RFU, CNEP1R1 / Fold change vs veh, CNEP1R1 / RFU, BIVM-ERCC5 /// ERCC5 / Fold change vs veh, BIVM-ERCC5 /// ERCC5 / RFU, ILF3 / Fold change vs veh, ILF3 / RFU 11762660_at / Fold change /veh 11762660_at / RFU VCAN (11757783_s_at) / Fold change /veh VCAN (11757783_s_at) / RFU DDX43 (11728927_at) / Fold change /veh DDX43 (11728927_at) / RFU KRT8 (11758188_x_at) / Fold change /veh KRT8 (11758188_x_at) / RFU NKD1 (11759106_at) / Fold change /veh NKD1 (11759106_at) / RFU SRD5A1 (11742802_a_at) / Fold change /veh SRD5A1 (11742802_a_at) / RFU TPSAB1 /// TPSB2 (11721975_s_at) / Fold change /veh TPSAB1 /// TPSB2 (11721975_s_at) / RFU GSTM3 (11746129_a_at) / Fold change /veh GSTM3 (11746129_a_at) / RFU IL23R (11737362_x_at) / Fold change /veh IL23R (11737362_x_at) / RFU TMEM51 (11727254_a_at) / Fold change /veh TMEM51 (11727254_a_at) / RFU PIWIL2 (11732686_x_at) / Fold change /veh PIWIL2 (11732686_x_at) / RFU ORM1 (11744905_x_at) / Fold change /veh ORM1 (11744905_x_at) / RFU CCDC152 (11743942_at) / Fold change /veh CCDC152 (11743942_at) / RFU ECM1 (11717891_a_at) / Fold change /veh ECM1 (11717891_a_at) / RFU IL23R (11748794_a_at) / Fold change /veh IL23R (11748794_a_at) / RFU TNFAIP8L3 (11732012_x_at) / Fold change /veh TNFAIP8L3 (11732012_x_at) / RFU MBOAT4 (11741988_at) / Fold change /veh MBOAT4 (11741988_at) / RFU 11764193_at / Fold change /veh 11764193_at / RFU TMEM53 (11763286_at) / Fold change /veh TMEM53 (11763286_at) / RFU MAGEB2 (11727129_at) / Fold change /veh MAGEB2 (11727129_at) / RFU TMEM200A (11744735_a_at) / Fold change /veh TMEM200A (11744735_a_at) / RFU CCDC152 (11751479_a_at) / Fold change /veh CCDC152 (11751479_a_at) / RFU FAM211A (11726209_a_at) / Fold change /veh FAM211A (11726209_a_at) / RFU RGS16 (11746705_a_at) / Fold change /veh RGS16 (11746705_a_at) / RFU VCAN (11755009_s_at) / Fold change /veh VCAN (11755009_s_at) / RFU RHOB (11743442_s_at) / Fold change /veh RHOB (11743442_s_at) / RFU RGS16 (11720943_a_at) / Fold change /veh RGS16 (11720943_a_at) / RFU RGS16 (11720944_at) / Fold change /veh RGS16 (11720944_at) / RFU, VPS4B / Fold change vs veh, VPS4B / RFU, CREB1 / Fold change vs veh, CREB1 / RFU, DNAJC13 / Fold change vs veh, DNAJC13 / RFU, GNAQ / Fold change vs veh, GNAQ / RFU, CDK5R1 / Fold change vs veh, CDK5R1 / RFU, ZRANB3 / Fold change vs veh, ZRANB3 / RFU, CUL4A / Fold change vs veh, CUL4A / RFU, CCNY / Fold change vs veh, CCNY / RFU, UFL1 / Fold change vs veh, UFL1 / RFU, COG3 / Fold change vs veh, COG3 / RFU, DIAPH2 / Fold change vs veh, DIAPH2 / RFU, SKA2 / Fold change vs veh, SKA2 / RFU, AFF3 / Fold change vs veh, AFF3 / RFU, LMF1 / Fold change vs veh, LMF1 / RFU, IPO11 / Fold change vs veh, IPO11 / RFU, DFFB / Fold change vs veh, DFFB / RFU, FOXP1 / Fold change vs veh, FOXP1 / RFU, CARD8 / Fold change vs veh, CARD8 / RFU, STRN3 / Fold change vs veh, STRN3 / RFU, ADK / Fold change vs veh, ADK / RFU, RASSF2 / Fold change vs veh, RASSF2 / RFU, WIPF1 / Fold change vs veh, WIPF1 / RFU, LARP1B / Fold change vs veh, LARP1B / RFU, RASA1 / Fold change vs veh, RASA1 / RFU, RB1 / Fold change vs veh, RB1 / RFU, PPFIA1 / Fold change vs veh, PPFIA1 / RFU, MAT2A / Fold change vs veh, MAT2A / RFU, CCT5 / Fold change vs veh, CCT5 / RFU, WDR92 / Fold change vs veh, WDR92 / RFU, CUX1 / Fold change vs veh, CUX1 / RFU, TTC7A / Fold change vs veh, TTC7A / RFU, TMEM135 / Fold change vs veh, TMEM135 / RFU, DEPTOR / Fold change vs veh, DEPTOR / RFU, CPM / Fold change vs veh, CPM / RFU, DNAJB6 / Fold change vs veh, DNAJB6 / RFU, CACNA2D3 / Fold change vs veh, CACNA2D3 / RFU, DTX4 / Fold change vs veh, DTX4 / RFU, TFCP2 / Fold change vs veh, TFCP2 / RFU, GMCL1 /// GMCL1P1 / Fold change vs veh, GMCL1 /// GMCL1P1 / RFU, AEBP2 / Fold change vs veh, AEBP2 / RFU, SNHG1 /// SNORD22 /// SNORD25 /// SNORD26 /// SNORD27 /// SNORD28 /// SNORD29 /// SNORD31 / Fold change vs veh, SNHG1 /// SNORD22 /// SNORD25 /// SNORD26 /// SNORD27 /// SNORD28 /// SNORD29 /// SNORD31 / Fold change (Aza/veh), C12orf56 (ProbeSet 11735607_a_at) / Fold change (ACY-1035/veh), C12orf56 (ProbeSet 11735607_a_at) / Fold change (Aza/veh), FGFR1OP (ProbeSet 11751329_s_at) / Fold change (ACY-1035/veh), FGFR1OP (ProbeSet 11751329_s_at) / Fold change (Aza/veh), VPS36 (ProbeSet 11739960_a_at) / Fold change (ACY-1035/veh), VPS36 (ProbeSet 11739960_a_at) / RFU SYPL1 (11715823_x_at) / Fold change /veh SYPL1 (11715823_x_at) / RFU IGFBP7 (11715501_s_at) / Fold change /veh IGFBP7 (11715501_s_at) / RFU REEP3 (11722064_at) / Fold change /veh REEP3 (11722064_at) / RFU IGLL1 (11728026_x_at) / Fold change /veh IGLL1 (11728026_x_at): dose or concentration left out as unconfirmed
Settings: MV-4-11 cells, 48 hours

Nc1ccc(-c2cccs2)cc1NC(=O)c1ccc2c(c1)cc(C1CC1)n2CCN1CCOCC1 [ACY-1035]
Fold change /veh KRTAP10-2 (11738614_at): 0.99
